Assay results: patent US12661353B2, “SPT5 inhibitors and uses thereof” (Yeda Research and Development Co. Ltd., priority 2020, dated 2026)

What was measured:
[1] = tested on: pro-inflammatory genes A20, CCL20, IL6, IL8, CXCL2, JUNB and IEX1; test: mRNA levels of pro-inflammatory genes under TNFα-induced conditions, HeLa, RT-qPCR; type: cell-based, human; conditions: HeLa cells, SPI 1 hour then TNFα 1 hour
Protocol: Cell culture—HEK293T, HeLa, MCF7, Jurkat and mouse embryonic fibroblasts (MEFs) cells were grown and maintained in Dulbecco's modified Eagle's medium supplemented with 10% fetal calf serum (Gibco) and 1% penicillin-streptomycin. To avoid NF-κB activity, HeLa cells were kept from reaching confluence and re-plated no more than 10 times following initial thawing. To induce NF-κB activity, cells were treated with […] recombinant human TNF-α (Peprotech) for the indicated times. STHdh Q111 and STHdh Q7 striatal cell lines (Coriell Institute for Medical Research) were grown in Dulbecco's modified Eagle's medium supplemented with 10% fetal calf serum (Gibco), 1% penicillin-streptomycin and 0.4 mg/ml G418 at 33° C. The cells were re-plated no more than 5-6 times, as recommended.
RNA analysis—Total RNA was extracted using Tri-reagent (Bio-Lab Chemicals) and Direct-Zol™ RNA MiniPrep kit (Zymo Research). Following, cDNA was synthesized from […] of total RNA using a High-Capacity cDNA Reverse Transcription Kit (ABI, Thermo Fisher Scientific). cDNA samples were analyzed by quantitative PCR (qPCR) in a ViiA 7 Real-Time PCR System using Fast qPCRBIO SYBR Green Mix (PCR Biosystems).
In the next step, the effect of the identified SPIs on expression of the selected genes following NF-κB activation was analyzed. Specifically, Hela cells were pre-incubated with DMSO or SPI (50 μM or less) for 1 hour followed by treatment with TNFα for an additional 1 hour.

[2] = target: T1, Spt5-Pol II interaction (NGN and KOW 1&2 of Spt5, coiled-coil domain of Rpb1) (Homo sapiens, UniProt P24928); test: Split-Renilla luciferase (RL) complementation assay of Spt5-Pol II interaction; type: binding
T1 construct: the region spanning NGN and KOW 1&2 of Spt5 and the coiled-coil (CC) domain of Rpb1; the coiled-coil (CC) domain of Rpb1, the large subunit of Pol II, were fused to N-RL and C-RL, respectively; made in house; host or cells: E. coli (pRSFDuet double expression plasmid); bacterial cell lysate used unpurified
Excerpt: Plasmid construction—The mammalian expression plasmids RSV-AC/AN Renilla luciferase (pRL-AC/AN), encoding the N-terminal amino acid residues 1-229 or the C-terminus 230-311 of the Renilla luciferase (RL) were previously described in Ashkenazi et al., 2016; and Ashkenazi et al., 2017. The split-Renilla luciferase fusion plasmids were constructed by two-step PCR using the pRL-AC or pRL-AN as backbones and plasmids encoding the region spanning NGN and KOW 1&2 of human Spt5 (SEQ ID NOs: 1-3) or the coiled-coil (CC) domain of human Rpb1 (SEQ ID NOs: 4-6), respectively, as insert sources. For bacterial expression of the split-RL fusion proteins the double expression plasmid pRSFDuet was used. All constructs were verified by sequencing.
High-throughput drug screening (HTS)—About 100,000 compounds [from MEGxp library: Pure natural compounds from plants (see Table 1 hereinbelow) were screened for their effect on Spt5-Pol II interaction (a schematic representation of the assay is shown in FIG. 1B). […] Compounds that diminished the luminescence activity by >30% were subjected for an additional screen with a bacterial lysate expressing recombinant full-length RL (diluted 1: 500 in phosphate buffer) that served as a control for false-positive compounds that inhibit the RL enzymatic activity itself (Ashkenazi et al., 2017). […]

T1 sequence (P24928 8-370 limits assumed): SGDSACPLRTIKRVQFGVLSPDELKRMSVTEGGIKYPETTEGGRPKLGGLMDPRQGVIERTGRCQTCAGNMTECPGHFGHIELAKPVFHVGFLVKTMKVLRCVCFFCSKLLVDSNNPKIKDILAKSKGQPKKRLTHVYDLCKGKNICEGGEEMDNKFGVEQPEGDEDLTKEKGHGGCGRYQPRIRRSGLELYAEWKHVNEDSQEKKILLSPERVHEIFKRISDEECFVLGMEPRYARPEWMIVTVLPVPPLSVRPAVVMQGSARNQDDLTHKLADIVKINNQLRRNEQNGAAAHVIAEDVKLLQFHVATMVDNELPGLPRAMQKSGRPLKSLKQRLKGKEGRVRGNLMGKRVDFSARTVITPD

| SMILES | Down-regulating transcription of pro-inflammatory genes under TNFα induced conditions (i.e. inhibiting transcription elongation of pro-inflammatory genes induced by Spt5) [1] | IC50 [2] |
| --- | --- | --- |
| Nc1ccccc1SC(CC(=O)c1cccs1)c1cccs1 (stereo not shown) [SPI-18] | + (+ >50%) | 33 µM |
| COc1ccc(C=CC(=O)c2cc(O)ccc2O)cc1 [SPI-21] | +++ (+++ represent >80% inhibition) | 25 µM |
